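Following 48 hours of exposure in 96-well plates, responses at five concentrations were used to interpolate endpoints linearly. GI50 marks 50% less growth.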 Calls of active or inactive are those of the source. Cut-off read from the data, not from the text of the source: active = GI50 up to about 1.1 µM and inactive = higher.

We go through 11 molecules from ChEMBL document CHEMBL1201862, “PubChem BioAssay data set” (2004).

Common to all, as to experiment: DTP human tumour cell line panel, 48 h
For experiment [1], the system named is HL-60.
The subject of experiment [2] is MOLT-4.
For experiment [3], the system named is HCT-15.
Experiment [4] deals with SK-OV-3.
The subject of experiment [5] is EKVX.
Experiment [6] has as its system M14.
The test system of experiment [7] is SF-268.
Experiment [8] relates to Hs-578T.
Experiment [9] relates to UACC-257.
Experiment [10] relates to K562.
Experiment [11] concerns T47D.
For experiment [12], the system named is OVCAR-3.
Experiment [13] relates to SK-MEL-2.
In experiment [14] the test system is U-251.
Experiment [15] has as its system IGROV-1.
For experiment [16], the system named is OVCAR-4.
Experiment [17] relates to NCI-H23.
Experiment [18] deals with SW-620.
The test system of experiment [19] is KM12.
Experiment [20] deals with SK-MEL-28.

The term GI50 denotes the concentration at which growth is held to half of that of the control. In the case of `Cc1cc(NS(=O)(=O)c2ccc(/N=[N+](\[O-])c3ccc(S(=O)(=O)Nc4cc(C)on4)cc3)cc2)no1`, the GI50 in experiment [1] was > 100 µM (inactive); in [2], > 100 µM (inactive); in [3], over 100 µM; in experiment [4], > 100 µM (inactive); in experiment [5], > 100 µM (inactive); in experiment [6] it was > 100 µM (inactive). Moreover, the GI50 in [7], in experiment [8], in experiment [9], in experiment [10], in experiment [11] and in experiment [12] was > 100 µM (inactive) each time. The GI50 in experiment [13], in [14], in [15], in experiment [16] and in experiment [17] was > 100 µM (inactive) throughout.

`C[C@@H]1Nc2cc(NC(=O)OCCF)nc(N)c2N=C1c1ccccc1`: the GI50 in [1] is < 0.0001 µM (active); in experiment [2], < 0.0001 µM (active); in experiment [3], under 0.0001 µM; in [5], < 0.0001 µM (active); in experiment [18], < 0.0001 µM (active); in experiment [19], < 0.0001 µM (active). The GI50 in experiment [6] is < 0.0001 µM (active); in experiment [7] it was < 0.0001 µM (active); in experiment [8], < 0.0001 µM (active); in experiment [9] it was < 0.01 µM (active); in experiment [10], < 0.0001 µM (active); in experiment [20], 88.7 µM (inactive). Also, the GI50 in [11] was 61.9 µM (inactive); in experiment [12], < 0.0001 µM (active); in [13] it was < 0.01 µM (active); in experiment [14] it was < 0.0001 µM (active); in experiment [15] it was < 0.0001 µM (active); in experiment [17] it was < 0.0001 µM (active).

Consider `O=[N+]([O-])c1cc(Cl)c(Cl)cc1[N+](=O)[O-]`, for which the GI50 in experiment [1] was 1.9 µM (inactive); in [2], 0.212 µM (active); in experiment [3], 2.85 µM; in experiment [5] it was 2.83 µM (inactive); in experiment [18] it was 2.91 µM (inactive); in experiment [19], 3.27 µM (inactive). For the same molecule, the GI50 in experiment [6] was 3.51 µM (inactive); in experiment [7], 1.81 µM (inactive); in [8], 13.9 µM (inactive); in [9] it was 2.15 µM (inactive); in experiment [10], 2.43 µM (inactive); in [20] it was 2.64 µM (inactive). Besides, the GI50 in experiment [11] is 3.24 µM (inactive); in experiment [12] it was 1.48 µM (inactive); in experiment [13], 2.44 µM (inactive); in [14], 2 µM (inactive); in experiment [15], 1.98 µM (inactive); in [16], 2.48 µM (inactive). Besides, the GI50 in experiment [17] is 2.14 µM (inactive).

`COc1cc([C@@H]2c3cc4c(cc3[C@@H](c3c(O)cc(O)c5c3O[C@H](c3ccc(O)c(O)c3)[C@H](OC(=O)c3cc(O)c(O)c(O)c3)C5)[C@H]3COC(=O)[C@H]23)OCO4)cc(OC)c1O`: the GI50 in experiment [1] is 19.5 µM (inactive); in experiment [2], 33.7 µM (inactive); in [3] it was 40.8 µM; in experiment [4], 44.1 µM (inactive); in experiment [5], 44.7 µM (inactive); in experiment [18], 44.4 µM (inactive). In addition, the GI50 in [19] is 32 µM (inactive); in [6] it was 23.4 µM (inactive); in experiment [7] it was 30.8 µM (inactive); in experiment [8], 96.4 µM (inactive); in experiment [9], > 100 µM (inactive); in experiment [20] it was 79.8 µM (inactive). In addition, the GI50 is > 100 µM (inactive) in [11]; 28.2 µM (inactive) in [12]; 57.9 µM (inactive) in [13]; 46.5 µM (inactive) in experiment [14]; 57.7 µM (inactive) in [15]; > 100 µM (inactive) in [16]. Besides, the GI50 in experiment [17] is 69.2 µM (inactive).

Consider `O=c1cnn(C/C=C/CO)c(=O)[nH]1`, for which the GI50 is > 100 µM (inactive) in experiment [1]; over 100 µM in [3]; > 100 µM (inactive) in experiment [5]; > 100 µM (inactive) in experiment [18]; > 100 µM (inactive) in experiment [19]; > 100 µM (inactive) in experiment [6]. Further, the GI50 in [7], in [8], in experiment [9], in [10], in experiment [20] and in experiment [11] was > 100 µM (inactive) each time. Besides, the GI50 in [12], in experiment [13], in experiment [14], in experiment [15] and in experiment [17] was > 100 µM (inactive) throughout.

With `COc1cc(/C=C/c2cc(=O)cc(/C=C/c3ccc(O)c(OC)c3)o2)ccc1O`, the GI50 in experiment [1] was 15.7 µM (inactive); in experiment [3] it was 60.4 µM; in [4], 76.4 µM (inactive); in experiment [5], > 70 µM (inactive); in experiment [18], > 35.5 µM (inactive); in experiment [19], > 38.3 µM (inactive). For the same molecule, the GI50 in experiment [6] was > 100 µM (inactive); in [7], 38 µM (inactive); in experiment [8] it was 24.4 µM (inactive); in experiment [9], > 100 µM (inactive); in [10], > 21 µM (inactive); in [20] it was > 100 µM (inactive). Besides, the GI50 was 15.3 µM (inactive) in experiment [11]; 76.4 µM (inactive) in experiment [12]; 41.2 µM (inactive) in experiment [13]; 25.5 µM (inactive) in experiment [14]; > 100 µM (inactive) in experiment [15]; 16.4 µM (inactive) in experiment [16]. Also, the GI50 in experiment [17] was 59.7 µM (inactive).

As to `CCCCc1ccc(Nc2nc(N)c3ncn(COCCO)c3n2)cc1`, the GI50 in experiment [1] is 36.3 µM (inactive); in experiment [2] it was 33 µM (inactive); in [3], 19.3 µM; in experiment [4], 11.2 µM (inactive); in experiment [5], 41.4 µM (inactive); in experiment [18], 26.1 µM (inactive). For the same molecule, the GI50 in experiment [19] is 32.8 µM (inactive); in experiment [6], 20.6 µM (inactive); in [7] it was 33 µM (inactive); in experiment [8], 36.8 µM (inactive); in [9], 21.3 µM (inactive); in [10], 7.01 µM (inactive). In addition, the GI50 was 24.4 µM (inactive) in experiment [11]; 16.6 µM (inactive) in experiment [12]; 17 µM (inactive) in experiment [13]; 22.1 µM (inactive) in experiment [14]; 18 µM (inactive) in experiment [15]; 32.2 µM (inactive) in experiment [16]. Further, the GI50 in experiment [17] is 21.3 µM (inactive).

Turning to `CC(=O)O[C@H]1CC[C@@]2(C)C(=CC[C@@H]3[C@@H]2CC[C@]2(C)Nc4c(cnn4S(C)(=O)=O)C[C@@H]32)C1`, the GI50 is 23.4 µM (inactive) in experiment [1]; 20.1 µM (inactive) in experiment [2]; 43.6 µM in experiment [3]; > 100 µM (inactive) in [4]; 52.8 µM (inactive) in [19]; 27.8 µM (inactive) in experiment [6]. For the same molecule, the GI50 was 62.4 µM (inactive) in [8]; 19.1 µM (inactive) in [10]; > 100 µM (inactive) in experiment [20]; 36.1 µM (inactive) in [11]; 48 µM (inactive) in [12]; > 100 µM (inactive) in experiment [13]. Besides, the GI50 in experiment [14] was 76.7 µM (inactive); in experiment [15], 97.1 µM (inactive); in experiment [17], 42.5 µM (inactive).

Consider `Cn1c2c(c3ccccc31)CCN=C2C1CCCOC1=O` (stereo unspecified), for which the GI50 in experiment [1] was > 100 µM (inactive); in experiment [3] it was over 100 µM; in [5], 88.3 µM (inactive); in experiment [18], > 100 µM (inactive); in experiment [19] it was > 100 µM (inactive); in [6] it was > 100 µM (inactive). Further, the GI50 in experiment [7] was > 100 µM (inactive); in experiment [8], 32.6 µM (inactive); in experiment [9], > 100 µM (inactive); in experiment [20], > 100 µM (inactive); in [11] it was > 100 µM (inactive); in [12], > 100 µM (inactive). In addition, the GI50 in experiment [13], in [14], in experiment [15] and in experiment [16] was > 100 µM (inactive) in each case.

With `CNc1cc(Cl)ccc1C(=O)N1CCC[C@H]1CO`, the GI50 in experiment [1] was 81.7 µM (inactive); in experiment [2], > 100 µM (inactive); in experiment [3] it was over 100 µM; in experiment [4], > 100 µM (inactive); in experiment [5], > 100 µM (inactive); in [18], > 100 µM (inactive). In addition, the GI50 in experiment [19], in [6], in experiment [7], in [8], in [9] and in experiment [20] was > 100 µM (inactive) throughout. In addition, the GI50 in [11] was > 100 µM (inactive); in experiment [13] it was > 100 µM (inactive); in experiment [14] it was > 100 µM (inactive); in experiment [15] it was > 100 µM (inactive); in experiment [16] it was 29.2 µM (inactive); in experiment [17] it was > 100 µM (inactive).

On to `COc1ccc2c(c1)[n+]([O-])c(C#N)c(N1CCN(c3ccc([N+](=O)[O-])cc3)CC1)[n+]2[O-]`, for which the GI50 was 5.42 µM (inactive) in [1]; 3.16 µM in [3]; 8.09 µM (inactive) in experiment [4]; 2.74 µM (inactive) in [5]; 5.55 µM (inactive) in [18]; 6.87 µM (inactive) in experiment [19]. For the same molecule, the GI50 in experiment [6] is 4.52 µM (inactive); in experiment [7], 2.91 µM (inactive); in experiment [8], 2.55 µM (inactive); in [9] it was 4.42 µM (inactive); in experiment [10] it was 1.45 µM (inactive); in experiment [20], 16.3 µM (inactive). Moreover, the GI50 in experiment [11] was 2.01 µM (inactive); in experiment [12] it was 9.91 µM (inactive); in experiment [13], > 57.4 µM (inactive); in [14], 2.41 µM (inactive); in [15] it was 1.49 µM (inactive); in experiment [16] it was 3.94 µM (inactive). Further, the GI50 in experiment [17] is 3.23 µM (inactive).
